In paper PMC12456010, “Structural constraints prevent a bat norovirus from binding to histo-blood group antigen co-factors” (Journal of Virology, 2025):

What was measured:
[1] = molecular target: T1, GX P domain (NPIH26) (Bat norovirus, UniProt A0A2S1TZT6); experiment: X-ray co-crystal structure, […] A; type: binding; conditions: co-crystallized with 30-60 molar excess; two fucose molecules per P domain dimer; site E332, H334, E349, T433 of one monomer; pH 6.5
T1 construct: gene ORF2; protruding (P) domain of the capsid protein, dimer

[2] = molecular target: T2, GII.27 P domain (Norovirus GII, UniProt A0A2H4Y8Z8); experiment: X-ray co-crystal structure, […] A; type: binding; conditions: co-crystallized with 30-60 molar excess; one molecule per dimer, site at dimer interface: N354, R355, D384 of one monomer, K444, G446, Y447 of the other
T2 construct: protruding (P) domain of the capsid protein, dimer

Row | Compound | X-ray co-crystal structure, 1.55 A [1] | X-ray co-crystal structure, 1.76 A [2]
1 | C[C@@H]1OC(O)[C@@H](O)[C@H](O)[C@@H]1O (some centres unmarked) [FUC, fucose] | The GX P domain held the fucose molecules with six direct hydrogen bonds | –
2 | CC(=O)N[C@H]1[C@@H](O[C@H]2[C@@H](O)[C@@H](CO)OC(O)[C@@H]2O[C@@H]2O[C@@H](C)[C@@H](O)[C@@H](O)[C@@H]2O)O[C@H](CO)[C@H](O)[C@@H]1O (stereo partly drawn) [A-trisaccharide, α-L-fucose-(1-2)-α-D-galactose-(3-1)-2-N-acetyl-α-D-galactosamine] | – | a single A-trisaccharide molecule bound to the P domain dimer
